Results from patent US9820963B2, “Composition containing lignan compound as active ingredient for preventing or treating cancer” (KOREA RESEARCH INSTITUTE OF BIOSCIENCE AND BIOTECHNOLOGY, priority 2013, dated 2017).
“Also recorded” adds a separate entry of the source. One block for each molecule: values may come before it.

Columns and labels:
[1] = system: ERKs/RSKs signaling pathway; experiment: Western blot of EGF-stimulated cells, ERKs/RSKs signaling pathway; format: cell-based, mouse; conditions: for ERK1/2 phosphorylation at Thr202/Tyr204: JB6 Cl41 cells
Procedure: The cultured JB6 Cl41 cells (1×10^6 cells) were aliquoted into a cell culture dish with a diameter of 100 mm and they were cultured overnight. Then, the cells were left for 24 hours in 0.1% FBS-MEM and pretreated with magnolin at concentrations of 15 μM, 30 μM, and 60 μM for 30 minutes, respectively, and after 30 minutes, co-treated with EGF and magnolin.
The proteins were extracted from the cultured JB6 Cl41 cells and the samples containing the proteins were analyzed by 8% to 10% SDS-PAGE, and transferred onto polyvinylidene difluoride (PVDF) membranes. The membranes were cultured in a blocking buffer containing 5% skim milk. Then, Western blot was performed using specific antibodies for phospho-MEK (MAPK (mitogen-activated protein kinase)/ERK kinase), total-MEK, phospho-ERK, total-ERK, phospho-RSK, total-RSK, phospho-Akt, total-Akt, phospho-p38 kinase, total-p38 kinase, phospho-JNK (c-Jun N-terminal kinase), and total-JNK (all the antibodies obtained from Cell Signaling Technology, Beverly, Mass., USA). In particular, β-actin (Santa Cruz, Calif., USA) was used as a control and the Western blot was visualized with an enhanced chemiluminescence detection system (Amersham Biosciences, Piscataway, N.J., USA) using the Chemidoc XRS imager system (Bio-Rad Laboratories, Hercules, Calif., USA).
To confirm whether the action of magnolin, which interrupts phosphorylation at Thr359/Ser363 of RSKs, was selective in MEKs/ERKs signaling pathways or not, the action was compared by conducting an experiment on the phosphorylation of ERKs and RSKs by treatment with PD98059, an MEK1/2 inhibitor. As a result, it was confirmed that PD98059 interrupts ERK1/2 phosphorylation at Thr202/Tyr204.

[2] = system: Mouse skin epidermal JB6 Cl41 cells; experiment: MTS assay, inhibitory effect of magnolin on cell proliferation; format: cell-based; conditions: up to 96 hours, read-out: inhibition of cell proliferation compared with DMSO control
Procedure: Mouse skin epidermal JB6 Cl41 cells were cultured in Dulbeco's Modified Eagle's Medium (DMEM) containing 10% FBS at 37° C. in a 5% CO2 bioreactor. The cells were subcultured at 80% to 90% confluence and the medium was changed every 2 to 3 days.
The cultured JB6 Cl41 cells (1×10^3 cells) were aliquoted into 96-well plates containing 5% FBS-MEM and cultured for 2 hours at 37° C. in a 5% CO2 bioreactor. Then, each well was added with 20 μL of an aqueous solution of the MTS-based Cell Titer 96, and then, further cultured for 1 hour at 37° C. in a 5% CO2 bioreactor. 25 μL of 10% sodium dodeceyl sulfate (SDS) solution was added into each of the wells to stop the reaction. The absorbance at 492 nm was measured to measure the growth of the cells at 0 hour.
While measuring the absorbance at 0 hour, the cells were simultaneously treated with the magnolin samples to final concentrations of 15 μM, 30 μM, and 60 μM, respectively, prepared in Example 5. The cells were cultured for 96 hours while measuring the absorbance at 24 hour intervals. In the experiment, the cell treated with DMSO alone was set as a control.

JB6 Cl41 cells [3] = experiment: Cytotoxicity of magnolin; format: cell-based, mouse; conditions: 100 μM or higher, 48 hours
Procedure: Additionally, to examine the cytotoxicity of magnolin, the cultured cells (2×10^4 cells) were aliquoted into 96-well plates containing 5% FBS-MEM and cultured overnight. Then, the cells were treated with the magnolin samples to final concentrations of 15 μM, 30 μM, 60 μM, and 100 μM respectively, prepared in the Example 5. The cells were cultured for 48 hours while measuring the absorbance at 24 hour intervals. In the experiment, the cell treated with DMSO alone was set as a control.

JB6 Cl41 cells [4] = experiment: Cell cycle distribution by PI flow cytometry, normal culture conditions; format: cell-based, mouse; conditions: for distribution in G1/G0 phase: 12 hours (control about 42%)
Procedure: To observe the cell cycle of the cells under normal cell culture conditions, JB6 Cl41 cells were cultured in a complete cell culture medium for 12 hours and treated with magnolin at final concentrations of 30 μM and 60 μM, respectively. After 12 hours, the cells were treated with trypsin, fixed, and treated with 20 μg/mL of PI at 4° C. for 15 minutes. Then, the cell cycle distribution was analyzed using the flow cytometry (BD FACS Calibur™ Flow cytometery, Franklin Lakes, N.J., USA).

JB6 Cl41 cells [5] = experiment: EGF-induced cell cycle progression; format: cell-based, mouse; conditions: 60 μM or higher, 1 ng/mL EGF, 12 hours
Procedure: Then, the cells were pretreated with magnolin to final concentrations of 15 μM, 30 μM, and 60 μM, respectively, for 30 minutes. Then, under the presence of magnolin, the cells were stimulated with 1 ng/mL of EGF for 12 hours.

ERK1 = ERK1 (Homo sapiens, UniProt P27361); experiment: In vitro kinase analysis with active ERK1 and His-RSK2-328-740; format: biochemical
Sequence of ERK1 (P27361 whole entry, species assumed, the tested form may be a part): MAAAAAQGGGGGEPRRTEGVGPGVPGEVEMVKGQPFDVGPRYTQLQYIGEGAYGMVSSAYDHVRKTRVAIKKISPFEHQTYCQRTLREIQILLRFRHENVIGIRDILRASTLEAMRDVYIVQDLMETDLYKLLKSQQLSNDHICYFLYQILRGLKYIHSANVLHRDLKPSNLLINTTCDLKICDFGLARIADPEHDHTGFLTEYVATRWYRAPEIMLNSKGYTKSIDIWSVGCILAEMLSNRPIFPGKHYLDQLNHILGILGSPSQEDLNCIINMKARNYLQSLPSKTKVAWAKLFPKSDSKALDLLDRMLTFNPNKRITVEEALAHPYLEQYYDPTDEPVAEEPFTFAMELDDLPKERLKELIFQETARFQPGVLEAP
Procedure: (§1) A truncated RSK2 protein containing the amino acid at position 328 to the amino acid at position 740 (His-RSK-328-740) was purified using Ni-NTA agarose beads (Qiagen Korea Ltd., Seoul, Korea) (Left panel on FIG. 13A) and an in vitro-kinase analysis was performed using active ERK and His-RSK2-328-740 proteins. Specifically, in the in vitro-kinase analysis, 20 μL of the purified sample was treated with 20 ng of active ERK1 or ERK2, 100 ng of RSK2, and 100 μM of cold-ATP, and 3.75 μM, 7.5 μM, 15 μM, 30 μM, and 60 μM of magnolin, respectively. Then, the kinase reaction was performed for 30 minutes at 30° C. The reaction was stopped by adding 6×SDS-sample buffer followed by boiling. Upon termination of the reaction, the resultant was visualized by Western blot.
(§2) As the result of the computational docking, it was observed that magnolin forms hydrogen bonds with Lys168 of ERK1 (Left panel on FIG. 13B) and Met108 and Lys54 of ERK2 (Right panel on FIG. 13B), respectively. Further, it was confirmed that magnolin in the active pocket of ERK1 or ERK2 was completely different in molecular structure and binding angle. The docking scores of magnolin at the active pockets of ERK1 and ERK2 were −0.7 and −6.68, respectively. Further, to measure the IC50 value on the activity of ERK1 or ERK2, the in vitro-kinase analysis was performed.

ERK2 [6] = target: T1, ERK2 (Homo sapiens, UniProt P28482); experiment: In vitro kinase analysis with active ERK2 and His-RSK2-328-740; format: biochemical
T1 sequence (P28482 whole entry): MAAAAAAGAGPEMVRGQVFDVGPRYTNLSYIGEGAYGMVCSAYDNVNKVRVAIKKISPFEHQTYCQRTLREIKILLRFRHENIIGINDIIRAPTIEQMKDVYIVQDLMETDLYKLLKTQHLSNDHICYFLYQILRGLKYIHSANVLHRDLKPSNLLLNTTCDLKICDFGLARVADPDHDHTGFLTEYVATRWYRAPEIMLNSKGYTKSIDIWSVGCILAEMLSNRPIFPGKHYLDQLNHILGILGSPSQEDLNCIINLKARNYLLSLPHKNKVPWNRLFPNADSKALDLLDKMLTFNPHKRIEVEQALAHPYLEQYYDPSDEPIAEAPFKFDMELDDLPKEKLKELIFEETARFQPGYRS
Procedure: as §1, §2

ERK2 [7] = target: T1, ERK2; experiment: Magnolin competition analysis using ATP-agarose beads; format: binding; conditions: increasing magnolin
Procedure: Then, to confirm whether magnolin was competitive with ATP or not, a magnolin competition analysis was performed using APT-agarose beads. As the result of the experiment, it was confirmed that an increase in magnolin decreased ERK2 that bind to ATP-agarose beads (FIG. 13E).

[8] = system: ATF1 and AP-1 transactivation activities; experiment: ATF1 and AP-1 phosphorylation, nuclear localization and transactivation (Western blot, luciferase reporter); format: cell-based, mouse
Procedure: 1×10^6 of the cultured JB6 Cl41 cells were cultured in a cell culture dish with a diameter of 100 mm for overnight. The cells were starved and left for 24 hours, and then pretreated with magnolin at concentrations of 15 μM, 30 μM, and 60 μM of for 30 minutes, and then co-treated with […] of EGF and magnolin for 30 minutes. The proteins were extracted from the cells and visualized by Western blot.
On the other hand, the cells were co-transfected with pGAL4-ATF1-expressing plasmids and p5xGal4-luciferase reporter plasmids, and then cultured for 12 hours. The cells were pretreated with magnolin for 30 minutes, and co-treated with EGF and magnolin for 6 hours. Then, the cell culture was stopped and the activity of firefly luciferase was measured using the VIXTOR X3(PerkinElmer).

JB6 Cl41 cells [9] = experiment: Anchorage-independent cell transformation assay, EGF-induced; format: cell-based; conditions: Mus musculus, JB6 Cl41, 336 h, 10 ng/mL EGF, 14 days
Procedure: JB6 Cl41 cells (8×10^3 cells) present in 1 mL of 0.3% Basal Medium Eagle (BME) agar containing 10% FBS and magnolin in concentrations of 15 μM, 30 μM, and 60 μM, respectively, were exposed to 10 ng/mL of EGF, maintained at 37° C., and cultured in a 5% CO2 bioreactor for 14 days. Then, the number and size of the colonies were counted using an ECLIPSE Ti inverted microscope and the NIS-Elements AR (V. 4.0) computer software program (NIKON Instruments Korea, Seoul, Korea).

[10] = system: A549 human lung cancer cells harboring Ras^G12V; experiment: Cell proliferation of lung cancer cells; format: cell-based; conditions: 15, 30, 60 μM, 96 hours
Procedure: H226 human lung cancer cells (2×10^3 cells) harboring Ras-wt and A549 human lung cancer cells (2×10^3 cells) harboring Ras^G12V, mutant activating factor, were aliquoted into 96-well plates, respectively, and treated with magnolin at concentrations of 15 μM, 30 μM, and 60 μM. The cells were cultured for 96 hours at 24 hour intervals and the cell proliferation was measured.

[11] = system: A549 cells having Ras^G12V; experiment: Anchorage-independent colony growth in soft agar; format: cell-based, human; conditions: 15, 30, 60 μM, 10 days
Procedure: Further, H226 cells (8×10^3 cells) having Ras-wt and A549 cells (8×10^3 cells) having Ras^G12V were cultured in 1 mL of 0.3% DMEM agar containing 10% FBS and 15 μM, 30 μM, and 60 μM of magnolin, respectively, maintained at 37° C., and cultured in a 5% CO2 bioreactor for 10 days. As the result of counting the number and size of the cell colonies using an ECLIPSE Ti inverted microscope and the NIS-Elements AR (V. 4.0) computer software program, it was observed that an anchorage-independent colony growth of A549 cells was inhibited by magnolin.

[12] = system: NIH3T3 cells expressing Ras^G12V; experiment: Cell proliferation and anchorage-independent colony growth of NIH3T3 cells; format: cell-based
Text: In order to confirm the experimental results more precisely, NIH3T3 cells stably expressing mock or Ras^G12V were used to perform an additional experiment in the same manner as described above.

[13] = co-treated with EGF and magnolin

Structure (SMILES): COc1cccc(-c2cc(=O)c3ccccc3o2)c1N [PD98059, reference compound]
phosphorylation at Thr359/Ser363 of RSKs ([1]; EGF-stimulated JB6 Cl41 cells): inhibited
ERK1/2 phosphorylation at Thr202/Tyr204 [1]: interrupts

inhibition of ERK1-mediated RSK2 phosphorylation at Thr359/Ser363 and Thr577 (ERK1; in vitro kinase reaction, 100 μM ATP, magnolin 3.75 to 60 μM): about 90%
IC50 (ERK1; in vitro-kinase analysis): ~0.087 µM
IC50 (ERK2 [6]): 0.0165 µM
ERK2 binding to ATP-agarose beads (ERK2 [7]): decreased
Structure (SMILES): COc1ccc([C@H]2OC[C@H]3[C@@H]2CO[C@@H]3c2cc(OC)c(OC)c(OC)c2)cc1OC [magnolin]
inhibition at 30 µM ([2]; 30 μM): ~40%
inhibition at 60 µM ([2]; 60 μM): ~70%
cytotoxicity (JB6 Cl41 cells [3]): no cytotoxicity was observed
distribution in G2/M cell cycle phase compared to control (JB6 Cl41 cells [4]; 30 μM and 60 μM, 12 hours): only a very small increase
distribution in G1/G0 phase (JB6 Cl41 cells [4]; 30 μM): about 55%
distribution in G1/G0 phase (JB6 Cl41 cells [4]; 60 μM): about 60%
effect of EGF on cell cycle (JB6 Cl41 cells [5]): almost completely inhibited
phosphorylation at Thr359/Ser363 of RSKs ([1]; EGF-stimulated JB6 Cl41 cells): interrupting phosphorylation; also recorded: inhibited
phosphorylations of MEK, Akt, p38 kinase, and JNKs ([1]; EGF-stimulated JB6 Cl41 cells): not to be involved
ERK1/2 phosphorylation at Thr202/Tyr204 [1]: does not interrupt the phosphorylation
EGF-induced ATF1 phosphorylation at Ser63 ([8]; JB6 Cl41 cells, Western blot): inhibited
AP-1 transactivation activity [8, 13]: inhibited
EGF-induced c-Jun phosphorylation at Ser63 and Ser73 [8, 13]: inhibited
nuclear phospho-c-Jun increased by EGF stimulation [8, 13]: decreased
nuclear phospho-ATF1 protein level induced by EGF ([8]; co-treated with EGF and magnolin, Western blot and immunocytofluorescence): decreased
ATF1 transactivation activity increased by EGF stimulation ([8]; co-treated with EGF and magnolin, luciferase reporter): inhibited
inhibition at 30 µM (JB6 Cl41 cells [9]; 30 μM): ~40%
inhibition at 60 µM (JB6 Cl41 cells [9]; 60 μM): ~75%
inhibition of cell proliferation in A549 cells compared with H226 cells [10]: more significantly
anchorage-independent colony growth of A549 cells [11]: inhibited
anchorage-independent growth [12]: inhibited
inhibition of cell proliferation compared with NIH3T3 cells expressing mock [12]: more sensitive
